Test results published in PubChem BioAssay AID602151 (Vanderbilt Specialized Chemistry Center, 2011).

These molecules were tested against Phospholipase D1 (Homo sapiens) (UniProt Q13393) (assay: PLD1 inhibitor potency in cells, dose response (AID 602151)). Settings: cellular PLD1 activity assay.
Phospholipase D1 (Homo sapiens), sequence (Q13393 whole entry, looked up): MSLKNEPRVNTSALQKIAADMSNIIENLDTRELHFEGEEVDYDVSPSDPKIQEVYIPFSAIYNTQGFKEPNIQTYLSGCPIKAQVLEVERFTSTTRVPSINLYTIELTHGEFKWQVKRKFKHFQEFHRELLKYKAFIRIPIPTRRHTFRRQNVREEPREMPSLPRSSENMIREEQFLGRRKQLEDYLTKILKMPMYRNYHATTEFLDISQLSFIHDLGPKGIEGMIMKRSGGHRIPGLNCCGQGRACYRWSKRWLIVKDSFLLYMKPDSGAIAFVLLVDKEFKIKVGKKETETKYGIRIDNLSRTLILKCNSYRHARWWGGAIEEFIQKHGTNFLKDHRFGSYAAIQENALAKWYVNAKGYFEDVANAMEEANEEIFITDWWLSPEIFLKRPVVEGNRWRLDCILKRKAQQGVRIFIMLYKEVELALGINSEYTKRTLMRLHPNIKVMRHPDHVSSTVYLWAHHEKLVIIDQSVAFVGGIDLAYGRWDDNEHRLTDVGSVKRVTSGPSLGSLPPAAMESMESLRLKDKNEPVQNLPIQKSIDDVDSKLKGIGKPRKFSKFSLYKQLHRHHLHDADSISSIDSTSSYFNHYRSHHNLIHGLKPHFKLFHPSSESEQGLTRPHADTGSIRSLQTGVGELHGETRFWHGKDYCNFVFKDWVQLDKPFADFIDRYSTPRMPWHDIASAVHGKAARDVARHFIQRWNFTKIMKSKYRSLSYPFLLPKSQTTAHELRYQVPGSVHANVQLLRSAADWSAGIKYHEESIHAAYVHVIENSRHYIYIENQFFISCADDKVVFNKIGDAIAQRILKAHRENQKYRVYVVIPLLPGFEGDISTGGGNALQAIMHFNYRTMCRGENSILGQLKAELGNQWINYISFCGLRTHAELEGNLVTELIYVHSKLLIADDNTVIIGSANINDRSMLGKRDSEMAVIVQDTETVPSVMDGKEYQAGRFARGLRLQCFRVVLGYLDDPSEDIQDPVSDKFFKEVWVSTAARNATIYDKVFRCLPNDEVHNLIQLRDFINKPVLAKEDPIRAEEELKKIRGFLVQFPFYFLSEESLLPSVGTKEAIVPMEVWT
Phospholipase D1 (Homo sapiens), sequence (Q13393 whole entry, looked up): as above
O=C(NCCN1CCC2(CC1)C(=O)NCN2c1ccccc1)c1cnc2ccccc2c1 showed an IC50 of 1900 nM. Work on O=C(NCCN1CCC2(CC1)C(=O)NCN2c1ccc(Cl)cc1)c1cc2cc(F)ccc2[nH]1 yielded an IC50 of 335 nM. Work on O=C(NCCN1CCC2(CC1)C(=O)NCN2c1ccc(Br)cc1)c1cnc2ccccc2c1 yielded an IC50 of 2700 nM. Molecule O=C(NCCN1CCC2(CC1)C(=O)NCN2c1ccc(F)c(F)c1)c1ccc(F)cc1 has an IC50 of 5780 nM. O=C(NCCN1CCC2(CC1)C(=O)NCN2c1cccc(Cl)c1)c1cnc2ccccc2c1 was tested, and the IC50 was 870 nM. Molecule O=C(NCCN1CCC2(CC1)C(=O)NCN2c1cccc(F)c1)c1cnc2ccccc2c1 has an IC50 of 2500 nM. In the case of O=C(NCCN1CCC2(CC1)C(=O)NCN2c1ccc(F)cc1)c1cc2cc(F)ccc2[nH]1, the IC50 is reported as 290 nM. Cc1cccc(C(=O)N[C@@H](C)CN2CCC3(CC2)C(=O)NCN3c2ccccc2)c1 gave an IC50 of 3400 nM. For O=C(NCCN1CCC2(CC1)C(=O)NCN2c1cccc(Cl)c1)c1ccc2ccccc2c1, the IC50 was 1200 nM. O=C(NCCN1CCC2(CC1)C(=O)NCN2c1ccc(F)cc1)c1cnc2ccccc2c1 was tested, and the IC50 was 2000 nM. In the case of O=C(C#Cc1ccccc1)NCCN1CCC2(CC1)C(=O)NCN2c1ccccc1, the IC50 is reported as 2130 nM. For O=C(NCCN1CCC2(CC1)C(=O)NCN2c1ccc(F)c(F)c1)c1ccc2ccccc2c1, the IC50 was 2810 nM. Molecule O=C(NCCN1CCC2(CC1)C(=O)NCN2c1ccc(Cl)cc1)c1cnc2ccccc2c1 has an IC50 of 3500 nM. Work on C[C@@H](CN1CCC2(CC1)C(=O)NCN2c1ccccc1)NC(=O)c1ccc(F)c(F)c1 yielded an IC50 of 150 nM. Molecule COc1cc(C(=O)NCCN2CCC3(CC2)C(=O)NCN3c2ccccc2)ccc1N has an IC50 of 5900 nM. O=C(NCCN1CCC2(CC1)C(=O)NCN2c1ccc(Br)cc1)c1cc2cc(F)ccc2[nH]1 was tested, and the IC50 was 2660 nM. O=C(NCCN1CCC2(CC1)C(=O)NCN2c1ccc(Cl)cc1)c1ccc2ccccc2c1 gave an IC50 of 2270 nM. O=C(NCCN1CCC2(CC1)C(=O)NCN2c1cccc(F)c1)c1cc2cc(F)ccc2[nH]1 was tested, and the IC50 was 210 nM. Work on O=C(NCCN1CCC2(CC1)C(=O)NCN2c1ccc(Br)cc1)c1ccc2ccccc2c1 yielded an IC50 of 5900 nM. O=C(NCCN1CCC2(CC1)C(=O)NCN2c1ccc(F)c(F)c1)c1cnc2ccccc2c1 gave an IC50 of 2060 nM. For O=C(NCCN1CCC2(CC1)C(=O)NCN2c1ccc(F)c(F)c1)c1cc2cc(F)ccc2[nH]1, the IC50 was 390 nM. With O=C(NCCN1CCC2(CC1)C(=O)NCN2c1ccc(F)cc1)c1ccc(F)cc1 the IC50 was 14000 nM. Work on O=C(NCCN1CCC2(CC1)C(=O)NCN2c1ccc(Br)cc1)c1ccc(F)cc1 yielded an IC50 of 10000 nM. Molecule C[C@@H](CN1CCC2(CC1)C(=O)NCN2c1cccc(F)c1)NC(=O)c1ccc2ccccc2c1 has an IC50 of 10 nM. O=C(NCCN1CCC2(CC1)C(=O)NCN2c1ccc(Cl)cc1)c1ccc(F)cc1 showed an IC50 of 5590 nM. O=C(NCCN1CCC2(CC1)C(=O)NCN2c1ccccc1)c1cc2ccccc2s1 gave an IC50 of 150 nM. Molecule O=C(NCCN1CCC2(CC1)C(=O)NCN2c1cccc(Cl)c1)c1cc2cc(F)ccc2[nH]1 has an IC50 of 250 nM. O=C(NCCN1CCC2(CC1)C(=O)NCN2c1ccc(F)cc1)c1ccc2ccccc2c1 showed an IC50 of 1700 nM. With O=C(NCCN1CCC2(CC1)C(=O)NCN2c1cccc(Cl)c1)c1ccc(F)cc1 the IC50 was 3470 nM.
